Values of other authors in WO2006030898A1, “Aldose reductase inhibitor” (Suntory Ltd, priority 2004, dated 2006).

Molecular target: aldose reductase (Homo sapiens, UniProt P15121)
Settings: flavonoid glycosides; no own test described

SMILES: O=c1c(O[C@@H]2O[C@H](CO)[C@@H](O)[C@H](O)[C@H]2O)c(-c2ccc(O)c(O)c2)oc2cc(O)cc(O)c12 [isoquercitrin]
- aldose reductase inhibitory action (in words): have an aldose reductase inhibitory action
